Here are results for ten compounds from PMC5048153 (Scientific Reports, 2016).

Assay [1] has as its system corticosterone-injured PC12 cells. In words: Protective effects on corticosterone-injured PC12 cells (MTT). The class given is cell-based, rat. Also on record: key to PR (protection rate), Table S1: compounds did not shown protection effects on corticosterone-injured PC12 cells. The settings on record: 24 h after treatment; for PR (protection rate), Table S1: 1.25µM; for PR (protection rate): 200 μM corticosterone. As for the experimental part:
PC12 cells were purchased from American Type Culture Collection and were maintained in DMEM medium supplemented with penicillin (100 unit/ml), streptomycin (100 μg/ml), 5% fetal bovine serum (FBS), and 10% horse serum at 37 °C in humidified atmosphere with 5% CO2. The detailed procedures were performed referring to the reported literatures. Briefly, PC12 cells of logarithmic growth phase were collected, re-suspended and then seeded at a density of 1 × 10^5 cells per well in 96-well plates and cultured in the DMEM medium with 5% horse serum, 10% FBSfor 24 h.
After incubation with compounds, 20 μl of 5 mg/ml MTT solution was added to each well and cultured at 37 °C for 2 h–4 h. Then, the culture medium was removed, and 150 μl dimethyl sulfoxide(DMSO) was added to each well for 15 min at room temperature. The absorbance of each well was measured at 570 nm using a microplate reader. The protective rates (PR) were calculated according to equation (1).

Assay [2] concerns HEK293 cells. The experiment in a line: Cytotoxicity on HEK293 cells (MTT). The class given is cell-based, human. To be noted: Homo sapiens, HEK293, 100μM, after treatment; read-out: IR (inhibitory rate) HEK293. The procedure:
(§1) Human normal hepatic L02 cells, human embryonic kidney cell line 293 cells (HEK293) and Rattus myoblast cell line H9C2 cells were respectively seeded in 96-well plates at a density of 4 × 10^3 cells per well and cultured in the 1640 or DMEM medium, with the supplement of 10% fetal bovine serum, penicillin (100 unit/ml), streptomycin (100 μg/ml) in a humidified incubator with 5% CO2 for 24 h. […] The cytotoxicities of the compounds were evaluated by MTT method.

Assay [3] relates to L02 cells. In words: Cytotoxicity on L02 cells (MTT). The settings on record: Homo sapiens, L02, 100μM, after treatment; read-out: IR (inhibitory rate) L02. The class given is cell-based, human. The procedure:
as §1

SMILES strings stand for the structures. Where a name gives a salt, the structure may show the parent alone. Some results are limits rather than exact numbers.

As for `COc1ccc2c(c1)C(CCNC(=O)c1cc(Br)cnc1Cl)=NCC2.O=C(O)C(=O)O` [6a-30, 5-Bromo-2-chloro-N-(2-(7-methoxy-3,4-dihydroisoquinolin-1-yl)ethyl)nicotinamide oxalate], the “PR (protection rate), Table S1” value in assay [1] is “-”. In addition, the inhibition at 100 µM is 49.1% in assay [2] and 47.5% in assay [3].
Regarding `COc1ccc2c(c1)C(CCNC(=O)c1ccc(C(C)=O)cc1)=NCC2` [6a-16, 4-Acetyl-N-(2-(7-methoxy-3,4-dihydroisoquinolin-1-yl)ethyl) benzamideoxalate], the “PR (protection rate), Table S1” value in assay [1] worked out at 6.1%. Moreover, the inhibition at 100 µM in assay [2] and in assay [3] was below 20% in each case.
`COc1ccc2c(c1)C(CCNC(=O)Nc1cc(Cl)c(Cl)c(Cl)c1)=NCC2.O=C(O)C(=O)O` [6b-5, 1-(2-(7-Methoxy-3,4-dihydroisoquinolin-1-yl)ethyl)-3-(3,4,5-trichlorophenyl)urea oxalate]: in assay [1], the “PR (protection rate), Table S1” value was “-”. For the same compound, the inhibition at 100 µM came to 40.1% in assay [2] and 40.7% in assay [3].
Consider `CCC(=O)NCCC1=NCCc2ccc(OC)cc21.O=C(O)C(=O)O` [6a-2, N-(2-(7-Methoxy-3,4-dihydroisoquinolin-1-yl)ethyl) propionamide oxalate], for which the results for the “PR (protection rate)” value in assay [1] (5 μM) and in assay [1] ([…]) were 3.1% and 18.1%, respectively. Moreover, the inhibition at 100 µM in assay [2] came out at 23.4%; in assay [3] it was 12.4%.
`COc1ccc2c(c1)C(CCNC(=O)Nc1nccs1)=NCC2.O=C(O)C(=O)O` [6b-17, 1-(2-(7-Methoxy-3,4-dihydroisoquinolin-1-yl)ethyl)-3-(thiazol-2-yl)urea oxalate]: in assay [1], the “PR (protection rate), Table S1” value is 13.9%. Besides, the “PR (protection rate)” value in assay [1] (1.25 μM) is recorded as “above 10%”. Besides, the inhibition at 100 µM in assay [2] stood at 21.9%; in assay [3] it was 20.1%.
In the case of `COc1ccc2c(c1)C(CCNC(=O)Nc1ccc(CC#N)cc1)=NCC2.O=C(O)C(=O)O` [6b-20, 1-(4-(Cyanomethyl)phenyl)-3-(2-(7-methoxy-3,4-dihydroisoquinolin-1-yl)ethyl)urea oxalate], the “PR (protection rate), Table S1” value in assay [1] is “-”. The inhibition at 100 µM in assay [2] was determined as 47.8%; in assay [3] it was 52%.
Regarding `COc1ccc2c(c1)C(CCNC(=O)c1cccnc1Cl)=NCC2.O=C(O)C(=O)O` [6a-21, 2-Chloro-N-(2-(7-methoxy-3,4-dihydroisoquinolin-1-yl)ethyl)nicotinamide oxalate], the “PR (protection rate), Table S1” value in assay [1] is 15.2%. Further, the “PR (protection rate)” value in assay [1] (1.25 μM) is given as “above 10%”. For the same compound, the inhibition at 100 µM came to 49.8% in assay [2] and 58.8% in assay [3].
For the compound `COc1ccc2c(c1)C(CCNC(=O)c1ccccc1Cl)=NCC2` [6a-7, 2-Chloro-N-(2-(7-methoxy-3,4-dihydroisoquinolin-1-yl)ethyl) benzamide oxalate], the “PR (protection rate), Table S1” value in assay [1] is reported as “-”. The values for the inhibition at 100 µM in assay [2] and in assay [3] were 27.4% and 23.5%, respectively.
In the case of `COc1ccc2c(c1)C(CCNC(=O)Nc1ccc(Br)cn1)=NCC2.O=C(O)C(=O)O` [6b-12, 1-(5-Bromopyridin-2-yl)-3-(2-(7-methoxy-3,4-dihydroisoquinolin-1-yl)ethyl)urea oxalate], in assay [1], the “PR (protection rate), Table S1” value is 16.3%. Further, the “PR (protection rate)” value in assay [1] (1.25 μM) is recorded as “above 10%”. Also, the inhibition at 100 µM in assay [2] was 49.4%; in assay [3], 48.1%.
On to `COc1ccc2c(c1)C(CCNC(=O)c1cc(Cl)ccc1Br)=NCC2.O=C(O)C(=O)O` [6a-27, 2-Bromo-5-chloro-N-(2-(7-methoxy-3,4-dihydroisoquinolin-1-yl)ethyl)benzamide oxalate], for which the “PR (protection rate), Table S1” value in assay [1] turned out to be 10.1%. Also, the “PR (protection rate)” value in assay [1] (1.25 μM) is recorded as “above 10%”. The inhibition at 100 µM in assay [2] stood at 51.8%; in assay [3], 45.9%.
